Earlier results in patent publication US8148152B2, “Method for the preparation of embryoid bodies (EBs) and uses thereof” (Axiogenesis AG, priority 2003, dated 2012).

Legend:
[1] = tested on: ES cell-derived cardiomyocytes; conditions: test compounds with known cardiotoxic potential; added on day 14, effect on fluorescent areas during 72 hours; data only in FIG. 6
[2] = tested on: EBs from mouse embryonic stem cells (clone D3, pαMHC-GFP); conditions: test compounds with known embryotoxic potential from ECVAM list; 10^-8 to 10^-5 M; fluorescence on day 14 as percent of control (0.1% DMSO); data only in FIG. 5

SMILES | cardiotoxic potential (classification of test compound) [1] | embryotoxic potential (classification of test compound) [2]
COc1cccc2c1C(=O)c1c(O)c3c(c(O)c1C2=O)C[C@@](O)(C(=O)CO)C[C@@H]3O[C@H]1C[C@H](N)[C@H](O)[C@H](C)O1 [doxorubicine] | cardiotoxic | 
COC(=O)c1ccccc1C(=O)OC [dimethylphtalate] |  | non-embryotoxic
CCCC(CCC)C(=O)O [valproic acid] |  | weak embryotoxic
C[C@@H]1C[C@H]2[C@@H]3CCC4=CC(=O)C=C[C@]4(C)[C@@]3(F)[C@@H](O)C[C@]2(C)[C@@]1(O)C(=O)CO [dexamethasone] | non cardiotoxic | 
CN(Cc1cnc2nc(N)nc(N)c2n1)c1ccc(C(=O)N[C@@H](CCC(=O)O)C(=O)O)cc1 [methotrexate] |  | strong embryotoxic
